Results published in the SangsterLogP compilation.

Tests used:
[1] = method code SF, from DOI: 10.1034/j.1399-3011.2003.00037.x, PMID: 12492901
[2] = method code pH-metric titration, from DOI: 10.1002/(sici)1096-9063(199607)47:3<265::aid-ps416>3.0.co;2-f
[3] = method code SF, from DOI: 10.1021/jm9405147, PMID: 8576915
[4] = method code SF-AS, from DOI: 10.1111/j.2042-7158.1989.tb06384.x, PMID: 2576447; settings: pH 7.4
[5] = method code SF-GLC, from DOI: 10.1080/03086648508073361
[6] = method code SF, from DOI: 10.1016/j.bcp.2004.09.021, PMID: 15627482; settings: pH 7.0
[7] = method code SF-AS, from DOI: 10.1016/0048-3575(87)90152-0
[8] = not given; remark: listed apart in the source
[9] = method code SF, from DOI: 10.1016/0378-5173(85)90102-4; settings: pH 8.0
[10] = not given; remark: listed apart in the source
[11] = not given; remark: listed apart in the source
[12] = method code SF-AS, from DOI: 10.1139/cjpp-75-12-1362, PMID: 9534947
[13] = not given; remark: listed apart in the source
[14] = method code SF-AS, from DOI: 10.1021/je700381u; settings: pH 0.0
[15] = method code SF-AS, from Frater-Schröder, M.; Alder, S.; Zbinden, G. (1976). Neurotoxic effects of pyridoxine and analogs in rats. Proc. Eur. Soc. Toxicol, 17, 277-284.; settings: pH 7.4
[16] = method code SF-AS, from PMID: 8197227; settings: pH 7.4
[17] = method code SF-AS, from DOI: 10.1021/jm00163a043, PMID: 2153206; settings: pH 7.0
[18] = not given; remark: listed apart in the source
[19] = not given; remark: listed apart in the source
[20] = method code SF-AS, from DOI: 10.1021/jm00254a011, PMID: 4845376

`C[C@H](Nc1ccc([N+](=O)[O-])cc1[N+](=O)[O-])C(=O)O` showed a logD ([1]; pH 2.0) of 2.09.

`CC(C)C1(C)N=C(c2ncccc2C(=O)O)NC1=O` (stereo unspecified) gave a logD ([2]; pH 2.7) of 0.22.

`CC1(C)C=Cc2cc3c(cc2O1)OC1c2ccc(O)cc2OCC31O` (stereo unspecified) gave a logP of 2.62.

`CC1=C(N2CC2)C(=O)C(Cl)=C(N2CC2)C1=O` gave a logP [3] of 1.2.

In the case of `CC1=C(N2CC2)C(=O)C(CCOC(N)=O)=C(N2CC2)C1=O`, the logP [3] is reported as 0.16.

Compound `CCCCn1c(=O)[nH]c(=O)c2nc[nH]c21` has a logD [4] of 0.84.

`O=P(N1CCCC1)(N1CCCC1)N1CCCC1` showed a logP [5] of 1.67.

In the case of `NC1=C(Cl)C(=O)c2ccccc2C1=O`, the logP [3] is reported as 2.08.

In the case of `CCCCC1(C(=O)OCC)CCC=[N+]1[O-]` (stereo unspecified), the logD [6] is reported as 0.69.

With `CC(C)[C@H](Nc1ccccc1)C(=O)OCc1ccccc1` the logP [7] was 4.41.

`CN(C)c1ccc(-c2cn3cc(I)ccc3n2)cc1` gave a logP [8] of 4.03.

For `CCCCn1c(=O)n(C)c(=O)c2nc[nH]c21`, the logD [4] was 1.29.

With `CC(=O)NC(Cc1c[nH]c2ccccc12)C(N)=O` (stereo unspecified) the logD ([1]; pH 11.0) was 0.16.

In the case of `CC(Oc1ccc(Oc2ccc(C(F)(F)F)cn2)cc1)C(=O)O` (stereo unspecified), the logP [2] is reported as 3.18.

For `CCN(CC)[C@@H](C)C(=O)OCn1ncc2c(=O)[nH]cnc21` (racemic), the logD [9] was 0.72.

With `Ic1ccc2nc(-c3ccc(-c4cnco4)cc3)cn2c1` the logP [8] was 3.64.

`COC(=O)CCC1=CC2(CCC(=O)OC)OOC1(C)c1ccccc12` (stereo unspecified) gave a logP [10] of 2.06.

Work on `C=C(C)C(=O)OCC(C)(C)COC(=O)C(=C)C` yielded a logP [11] of 2.79.

`CCn1c(=O)n(C)c(=O)c2nc[nH]c21` gave a logD [4] of 0.52.

For `O=C(N/N=C/c1c(O)ccc2ccccc12)c1ccc(O)cc1`, the logP [12] was 3.95.

`Clc1cc2c(Cl)cccc2c(Cl)c1Cl` gave a logP [13] of 5.77.

With `NC(C(=O)OCn1ncc2c(=O)[nH]cnc21)c1ccccc1` (stereo unspecified) the logD [9] was -0.15.

For `O=C(O)c1ccc(F)cc1Cl`, the logD [14] was 2.63.

For `Cc1ncc(CO)c(COCCC(C)C)c1O`, the logD [15] was 0.83.

`NC(=S)NNCc1ccc2c(c1)OCO2` gave a logD [16] of 0.14.

Compound `C=C(C)C(=O)OCCOC(=O)C(=C)C` has a logP [11] of 1.22.

For `CC1=C(N2CC2)C(=O)C(Br)=C(N2CC2)C1=O`, the logP [3] was 1.36.

With `C=C(C)C(=O)OCCCCCCCC(C)C` the logP [11] was 4.92.

Work on `CC(Cc1ccc(C(C)(C)C)cc1)CN1C[C@@H](C)O[C@@H](C)C1` (stereo partly specified) yielded a logD ([2]; pH 9.0) of 4.93.

`CN1CCC[C@H]1c1cccnc1` gave a logP [2] of 0.93.

Compound `COc1ccc(C(=O)N/N=C\c2c(O)ccc3ccccc23)cc1` has a logP [12] of 4.06.

Work on `Cc1ncc(CO)c(Cc2ccc(N(C)C)cc2)c1O` yielded a logD [15] of 0.81.

Work on `Nc1ccn([C@H]2C=C[C@@H](CO)O2)c(=O)n1` yielded a logD [17] of -0.7.

In the case of `CCCCC1(C(=O)OC(C)C)CCC=[N+]1[O-]` (stereo unspecified), the logD [6] is reported as 1.07.

`O=C(NNc1nc(-c2ccccc2)cs1)c1ccc2c(c1)OCO2` showed a logD [16] of 2.14.

`Oc1ccc2c(c1)OC[C@H]1c3cc4c(cc3O[C@@H]21)OCO4` showed a logP of 2.61.

`COc1ccc([C@@H]2COc3cc(O)ccc3C2)c(OC)c1` gave a logP of 3.21.

For `CCCn1c(=O)[nH]c(=O)c2nc[nH]c21`, the logD [4] was 0.33.

Compound `CC12C=CC(CCC(=O)O)(OO1)c1ccccc12` (stereo unspecified) has a logP [10] of 1.19.

`O=c1oc2cc(O)ccc2c2oc3cc(O)ccc3c12` gave a logP of 2.69.

In the case of `CC(=O)N/N=C/c1c(O)ccc2ccccc12`, the logP [12] is reported as 2.91.

`O=C(N/N=C/c1c(O)ccc2ccccc12)c1ccc([N+](=O)[O-])cc1` gave a logP [12] of 3.58.

In the case of `CC12C=CC(CCS(N)(=O)=O)(OO1)c1ccccc12` (stereo unspecified), the logP [10] is reported as 1.66.

Work on `O=C(O)c1ccc(Cl)cc1F` yielded a logD [14] of 2.28.

For `Cc1cn([C@H]2C[C@H](O)[C@@H](CO)O2)c(=O)[nH]c1=S`, the logD [17] was -0.07.

For `Clc1ccc2ccccc2c1Cl`, the logP [13] was 4.42.

`O=C(O)c1cc([N+](=O)[O-])ccc1Cl` gave a logP [18] of 2.13.

For `C=C(C)C(=O)OCC(F)(F)F`, the logP [11] was 1.56.

`Ic1ccc2nc(-c3ccc(-c4cc[nH]n4)cc3)cn2c1` gave a logP [8] of 3.2.

Work on `CC(C)C[C@H](N)C(=O)OCn1ncc2c(=O)[nH]cnc21` yielded a logD [9] of 0.19.

Compound `CNC(=O)Oc1ccccc1OC(C)C` has a logP [19] of 1.99.

Compound `O=C(O)c1cc(Br)ccc1Cl` has a logD [14] of 3.16.

Compound `O=[N+]([O-])c1cc(-c2ccccc2)ccc1Br` has a logP [18] of 4.82.

With `CC(C(=O)O)N(C(=O)c1ccccc1)c1ccc(F)c(Cl)c1` (racemic) the logP [2] was 3.09.

Work on `Clc1c(Cl)c(Cl)c2c(Cl)c(Cl)c(Cl)c(Cl)c2c1Cl` yielded a logP [13] of 6.42.

With `O=C(O)c1ccc([N+](=O)[O-])cc1Cl` the logP [18] was 2.19.

For `CCN(CC)P(=O)(N(CC)CC)N(CC)CC`, the logP [5] was 2.53.

In the case of `COC(=O)CCC12C=CC(C)(OO1)c1ccccc12` (stereo unspecified), the logP [10] is reported as 2.13.

In the case of `CCCCC1(C(=O)OC(C)(C)C)CCC=[N+]1[O-]` (stereo unspecified), the logD [6] is reported as 1.36.

With `O=c1[nH]c(=S)ccn1[C@H]1CC[C@@H](CO)O1` the logD [17] was -0.21.

`CSC1=NCCN1c1ncc([N+](=O)[O-])s1` showed a logP [20] of 1.78.

In the case of `Cc1cn([C@H]2CC[C@@H](CO)O2)c(=O)[nH]c1=S`, the logD [17] is reported as 0.44.

`CN(C)P(=O)(N(C)C)N1CCCC1` gave a logP [5] of 0.82.

In the case of `N#Cc1c(Cl)c(Cl)c(Cl)c(C#N)c1Cl`, the logP [19] is reported as 3.8.

Compound `OCc1ccc(Cl)cc1` has a logP [18] of 1.99.

Work on `CCCCN(CCCC)Cc1c(CO)cnc(C)c1O` yielded a logD [15] of 1.69.

With `CCCCOC(=O)C1(CCCC)CCC=[N+]1[O-]` (stereo unspecified) the logD [6] was 1.75.

`CN(C)P1(=O)N(C)CCN1C` gave a logP [5] of 0.02.

Work on `CCCN(CCC)CC(=O)OCn1ncc2c(=O)[nH]cnc21` yielded a logD [9] of 1.27.

With `O=C(N/N=C/c1c(O)ccc2ccccc12)c1ccco1` the logP [12] was 3.41.

With `CCn1c(=O)[nH]c(=O)c2nc[nH]c21` the logD [4] was -0.11.

`COC(=O)CCC12C=CC(CCC(=O)OC)(OO1)c1ccccc12` gave a logP [10] of 2.08.

`Nc1ccn(C2CC(O)C(CO)O2)c(=O)n1` (stereo unspecified) showed a logD [17] of -1.62.

`O=[N+]([O-])c1cnc(N2CCNC2=S)s1` gave a logP [20] of 1.7.

In the case of `O=C(O)c1ccc(Br)cc1F`, the logD [14] is reported as 2.67.

`CCCC(Nc1ccc([N+](=O)[O-])cc1[N+](=O)[O-])C(=O)O` (racemic) gave a logD ([1]; pH 2.0) of 2.88.

In the case of `Cc1ccccc1C(=O)Nc1cccc(OC(C)C)c1`, the logP [19] is reported as 3.5.

Work on `O=C(O)c1cc(Br)ccc1F` yielded a logD [14] of 3.43.

For `CC(C)CC(=O)OCc1ccccc1`, the logP [7] was 3.26.

For `N#Cc1ccc(O)cc1`, the logP [18] was 1.28.

Compound `COc1ccc2c(c1)OCc1c-2oc2cc3c(cc12)C=CC(C)(C)O3` has a logP of 3.18.

In the case of `Ic1ccc2nc(-c3ccc(-c4ncon4)cc3)cn2c1`, the logP [8] is reported as 3.12.

Compound `Cc1ncc(CO)c2c1OC1=CCCCC1=C2` has a logD [15] of 1.98.

`c1csc(NNCc2ccc3c(c2)OCO3)n1` gave a logD [16] of 1.8.

With `CC(C)CC(=O)Oc1ccccc1` the logP [7] was 3.18.

For `CNC(=O)Oc1ccc(C)c(C)c1`, the logP [19] was 2.25.

In the case of `C=C(C)C(=O)OCCCOC(=O)C(=C)C`, the logP [11] is reported as 1.86.

`Clc1ccc2cc(Cl)c(Cl)cc2c1` gave a logP [13] of 5.12.

`CN(C)CC(=O)OCn1ncc2c(=O)[nH]cnc21` showed a logD [9] of -0.49.

In the case of `COC(=O)C(c1ccccc1)C(C)C` (stereo unspecified), the logP [7] is reported as 3.33.

In the case of `CN(C)P(=O)(N1CCCC1)N1CCCC1`, the logP [5] is reported as 1.88.

For `CCOC(C(=O)OCc1ccccc1)C(C)C` (stereo unspecified), the logP [7] was 3.29.

Work on `CNC(=O)Oc1cc(C)cc(C)c1` yielded a logP [19] of 2.38.

Compound `Clc1cc2c(Cl)ccc(Cl)c2cc1Cl` has a logP [13] of 5.81.

In the case of `CC(=O)N[C@@H](Cc1ccccc1)C(=O)O`, the logD ([1]; pH 2.0) is reported as 0.4.

Compound `NC(=S)N/N=C\c1ccc2c(c1)OCO2` has a logD [16] of 1.4.

`CCCCC1(C(=O)OCC)C(CC)C(C)C=[N+]1[O-]` (stereo unspecified) showed a logD [6] of 1.01.

Work on `NC1=CC(=O)c2ccccc2C1=O` yielded a logP [3] of 1.77.

`Cc1csc(NN=Cc2ccc3c(c2)OCO3)n1` gave a logD [16] of 1.5.

Compound `CCCCOCc1c(CO)cnc(C)c1O` has a logD [15] of 1.34.

In the case of `CCCC[C@H](Nc1ccc([N+](=O)[O-])cc1[N+](=O)[O-])C(=O)O`, the logD ([1]; pH 2.0) is reported as 3.25.
